# Earlier results as cited in patent publication US11786460B2, “Pharmaceutical dry powder composition for inhalation comprising a thyroid hormone” (priority 2018, dated 2023).
# Tests used:
# [1] = mainly in the jejunum and ileum
# Calu-3 cells = settings: in vitro
smiles,measurement,setting,value
N[C@@H](Cc1cc(I)c(Oc2cc(I)c(O)c(I)c2)c(I)c1)C(=O)O [levothyroxine],fraction absorbed after oral administration,[1],60-80%
same,absorption from the respiratory mucosa (permeability),Calu-3 cells,can be absorbed effectively from the respiratory mucosa
